Test results taken from PubChem BioAssay AID1963833 (Molecular Pharmacology Branch, DTP, NCI, 2024).

Tested on: 883617-216-R-J1-PDC complex spheroid viability
Assay: Anticancer human tumor 883617-216-R-J1-PDC patient-derived bladder carcinoma cell line growth inhibition [POLQ]
Conditions: for IC50: curve of first compound; for viability, T/C: stronger effect = lower value; active = viability on the fitted dose curve at most 10% of control; inactive = the rest
Outline: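 PDC + HUVEC + MSC complex spheroids; POLQ inhibitors ± partner drugs; top conc. at/near clinical Cmax, else 10 microM (SN-38 1 microM), half-log dilutions; 37 degrees C, 5% CO2.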

[1] = second compound 0.0316 µM, first compound 0.00316 µM
[2] = second compound 0.0316 µM, first compound 0.01 µM
[3] = second compound 0.0316 µM, first compound 0.0316 µM
[4] = second compound 0.0316 µM, first compound 0.1 µM
[5] = second compound 0.0316 µM, first compound 0.316 µM
[6] = second compound 0.0316 µM, first compound 1 µM
[7] = second compound 0.1 µM, first compound 0.00316 µM
[8] = second compound 0.1 µM, first compound 0.01 µM
[9] = second compound 0.1 µM, first compound 0.0316 µM
[10] = second compound 0.1 µM, first compound 0.1 µM
[11] = second compound 0.1 µM, first compound 0.316 µM
[12] = second compound 0.1 µM, first compound 1 µM
[13] = second compound 0.316 µM, first compound 0.00316 µM
[14] = second compound 0.316 µM, first compound 0.01 µM
[15] = second compound 0.316 µM, first compound 0.0316 µM
[16] = second compound 0.316 µM, first compound 0.1 µM
[17] = second compound 0.316 µM, first compound 0.316 µM
[18] = second compound 0.316 µM, first compound 1 µM
[19] = second compound 1 µM, first compound 0.00316 µM
[20] = second compound 1 µM, first compound 0.01 µM
[21] = second compound 1 µM, first compound 0.0316 µM
[22] = second compound 1 µM, first compound 0.1 µM
[23] = second compound 1 µM, first compound 0.316 µM
[24] = second compound 1 µM, first compound 1 µM
[25] = second compound 3.16 µM, first compound 0.00316 µM
[26] = second compound 3.16 µM, first compound 0.01 µM
[27] = second compound 3.16 µM, first compound 0.0316 µM
[28] = second compound 3.16 µM, first compound 0.1 µM
[29] = second compound 3.16 µM, first compound 0.316 µM
[30] = second compound 3.16 µM, first compound 1 µM
[31] = second compound 10 µM, first compound 0.00316 µM
[32] = second compound 10 µM, first compound 0.01 µM
[33] = second compound 10 µM, first compound 0.0316 µM
[34] = second compound 10 µM, first compound 0.1 µM
[35] = second compound 10 µM, first compound 0.316 µM
[36] = second compound 10 µM, first compound 1 µM
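Also: spheroids exposed to compounds for seven days before readout.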
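For viability, T/C in this document: 100% = DMSO vehicle control viability.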

CCc1c2c(nc3ccc(O)cc13)-c1cc3c(c(=O)n1C2)COC(=O)[C@]3(O)CC + Nc1ccc(C#CCN(C(=O)Cc2ncc(C(F)(F)F)cc2C(F)(F)F)c2ccc(F)cc2)nn1
107 nM: IC50 (second compound 0.0316 µM)
inactive: viability, T/C [1] 77.5% | viability, T/C [2] 71% | viability, T/C [3] 59.1% | viability, T/C [4] 51.3% | viability, T/C [5] 40% | viability, T/C [6] 27.1% | viability, T/C [7] 92.6% | viability, T/C [8] 68.3% | viability, T/C [9] 70.8% | viability, T/C [10] 62.3% | viability, T/C [11] 39.5% | viability, T/C [12] 27.9% | viability, T/C [13] 77.5% | viability, T/C [14] 76% | viability, T/C [15] 72.6% | viability, T/C [16] 51% | viability, T/C [17] 46.6% | viability, T/C [18] 26.8% | viability, T/C [19] 86.4% | viability, T/C [20] 82.6% | viability, T/C [21] 59.3% | viability, T/C [22] 50.1% | viability, T/C [23] 40.1% | viability, T/C [24] 31.4% | viability, T/C [25] 94.8% | viability, T/C [26] 84.2% | viability, T/C [27] 71.1% | viability, T/C [28] 52.3% | viability, T/C [29] 45.9% | viability, T/C [30] 27.4% | viability, T/C [31] 93.6% | viability, T/C [32] 89.1% | viability, T/C [33] 78.9% | viability, T/C [34] 59.8% | viability, T/C [35] 51.4% | viability, T/C [36] 34.1%
168 nM: IC50 (second compound 3.16 µM)
278 nM: IC50 (second compound 10 µM)
177 nM: IC50 (second compound 0.316 µM)
169 nM: IC50 (second compound 0.1 µM)
90.8 nM: IC50 (second compound 1 µM)

CCCS(=O)(=O)Nc1ccc(F)c(C(=O)c2c[nH]c3ncc(-c4ccc(Cl)cc4)cc23)c1F + Cc1cccc(N(C)C(=O)C2C(O)CCN2c2nc(C)cc(C(F)(F)F)c2C#N)c1
inactive: viability, T/C [3] 89.5% | viability, T/C [4] 93.6% | viability, T/C [5] 99.3% | viability, T/C [6] 104% | viability, T/C (second compound 0.0316 µM, first compound 3.16 µM) 83.7% | viability, T/C (second compound 0.0316 µM, first compound 10 µM) 56.8% | viability, T/C [9] 105% | viability, T/C [10] 94.3% | viability, T/C [11] 97.2% | viability, T/C [12] 90.4% | viability, T/C (second compound 0.1 µM, first compound 3.16 µM) 93.9% | viability, T/C (second compound 0.1 µM, first compound 10 µM) 55.5% | viability, T/C [15] 86.9% | viability, T/C [16] 114% | viability, T/C [17] 98.4% | viability, T/C [18] 87.2% | viability, T/C (second compound 0.316 µM, first compound 3.16 µM) 80.6% | viability, T/C (second compound 0.316 µM, first compound 10 µM) 64.3% | viability, T/C [21] 97.4% | viability, T/C [22] 91.4% | viability, T/C [23] 92.7% | viability, T/C [24] 93.8% | viability, T/C (second compound 1 µM, first compound 3.16 µM) 92.9% | viability, T/C (second compound 1 µM, first compound 10 µM) 51.7% | viability, T/C [27] 116% | viability, T/C [28] 97.3% | viability, T/C [29] 106% | viability, T/C [30] 108% | viability, T/C (second compound 3.16 µM, first compound 3.16 µM) 89.2% | viability, T/C (second compound 3.16 µM, first compound 10 µM) 55.7% | viability, T/C [33] 98.2% | viability, T/C [34] 97.2% | viability, T/C [35] 104% | viability, T/C [36] 102% | viability, T/C (second compound 10 µM, first compound 3.16 µM) 100% | viability, T/C (second compound 10 µM, first compound 10 µM) 61.3%
> 10000 nM: IC50 (second compound 0.0316 µM) | IC50 (second compound 0.1 µM) | IC50 (second compound 0.316 µM) | IC50 (second compound 1 µM) | IC50 (second compound 3.16 µM) | IC50 (second compound 10 µM)

CC[C@@]1(O)C(=O)OCc2c1cc1n(c2=O)Cc2cc3c(CN(C)C)c(O)ccc3nc2-1 + COC1C(OC(N)=O)C(O)C(Oc2ccc3c(O)c(NC(=O)c4ccc(O)c(CC=C(C)C)c4)c(=O)oc3c2C)OC1(C)C
inactive: viability, T/C (second compound 0.0316 µM, first compound 0.000316 µM) 110% | viability, T/C (second compound 0.0316 µM, first compound 0.001 µM) 98.5% | viability, T/C [1] 94.7% | viability, T/C [2] 89.1% | viability, T/C [3] 67.4% | viability, T/C [4] 65.2% | viability, T/C (second compound 0.1 µM, first compound 0.000316 µM) 108% | viability, T/C (second compound 0.1 µM, first compound 0.001 µM) 110% | viability, T/C [7] 91.7% | viability, T/C [8] 85.8% | viability, T/C [9] 55.2% | viability, T/C [10] 60.6% | viability, T/C (second compound 0.316 µM, first compound 0.000316 µM) 95.9% | viability, T/C (second compound 0.316 µM, first compound 0.001 µM) 101% | viability, T/C [13] 87.1% | viability, T/C [14] 81.6% | viability, T/C [15] 58% | viability, T/C [16] 65% | viability, T/C (second compound 1 µM, first compound 0.000316 µM) 94.9% | viability, T/C (second compound 1 µM, first compound 0.001 µM) 96.8% | viability, T/C [19] 89.7% | viability, T/C [20] 82.3% | viability, T/C [21] 57.3% | viability, T/C [22] 61.7% | viability, T/C (second compound 3.16 µM, first compound 0.000316 µM) 107% | viability, T/C (second compound 3.16 µM, first compound 0.001 µM) 89.6% | viability, T/C [25] 93.4% | viability, T/C [26] 78% | viability, T/C [27] 65.2% | viability, T/C [28] 57.1% | viability, T/C (second compound 10 µM, first compound 0.000316 µM) 104% | viability, T/C (second compound 10 µM, first compound 0.001 µM) 90.9% | viability, T/C [31] 95.3% | viability, T/C [32] 88% | viability, T/C [33] 65.6% | viability, T/C [34] 64.9%
> 100 nM: IC50 (second compound 0.0316 µM) | IC50 (second compound 0.1 µM) | IC50 (second compound 0.316 µM) | IC50 (second compound 1 µM) | IC50 (second compound 3.16 µM) | IC50 (second compound 10 µM)
